Measurements as given in US8586125B2, “Thermal treatment of an implantable medical device” (Advanced Cardiovascular Systems, Inc., priority 1999, dated 2013).

Experiments:
[1] = Release Rate Profile Procedure (in vitro, HPLC); format: physicochemical; conditions: as demonstrated in Example 53
Procedure: This Example 41 is referred to as the “Release Rate Profile Procedure.” A drug-coated stent was placed on a stent holder of a Vankel Bio-Dis release rate tester (Vankel, Inc., Cary, N.C.). The stent was dipped into an artificial medium which stabilizes the 40-O-(2-hydroxy)ethyl-rapamycin in the testing solution, including a phosphate buffer saline solution (10 mM, pH 7.4) with 1% TRITON X-100 (Sigma Corporation), for a designated amount of time (e.g., 3 hours). Then the solution was analyzed for the amount of drug released from the stent coating using an HPLC process. The HPLC system consisted of a Waters 2690 system with an analytical pump, a column compartment (set at 40° C.), an auto-sampler, and a 996 PDA detector. The column was an YMC Pro C18 (150 mm×4.6 I.D., 3 μm particle size), maintained at a temperature of 40° C. The mobile phase consisted of 75% acetonitrile and 25% 20 mMolar ammonium acetate. […] After the drug solution was analyzed by HPLC the results were quantified by comparing the release rate results with a reference standard.
If the experimental protocol required that the stent coating be subjected to experimental conditions for an additional time, the stent was then dipped in a fresh medium solution for the necessary amount of time (e.g., another 3 hours) and the drug released in the solution was analyzed again according to the HPLC procedure described above. […]

[2] = Release rate from a standard polymeric coating; format: physicochemical; conditions: in about 24 hours
Text: Another potential shortcoming of the foregoing method of medicating stents is that the release rate of the active agent may be too high to provide an efficacious treatment. This shortcoming may be especially pronounced with certain active agents. […] Thus, there is a need for a coating that reduces the release rate of active agents in order to provide a more efficacious release rate profile.

coronary arteries = assay: Cephalotaxin/EVOH coated stents implanted in porcine coronary arteries; format: in vivo, pigs; conditions: cephalotaxin coated vs uncoated and EVOH coated stents; estimated 33 μg cephalotaxin per stent
Procedure: Multi-Link™ stents were cleaned by placement in an ultrasonic bath of isopropyl alcohol solution for 10 minutes. The stents were dried and plasma cleaned in a plasma chamber. An EVOH solution was made with 1 gram of EVOH and 7 grams of DMSO, making an EVOH:DMSO ratio of 1:7. Cephalotaxin was added to the 1:7 EVOH:DMSO solution. Cephalotaxin constituted 5% by weight of the total weight of the solution. The solution was vortexed and placed in a tube. The cleaned Multi-Link™ stents were attached to mandrel wires and dipped into the solution. The coated stents were passed over a hot plate, for about 3-5 seconds, with a temperature setting of about 60° C. The coated stents were cured for 6 hours in an air box then placed in a vacuum oven at 60° C. for 24 hours. The above process was repeated twice, having a total of three layers. The average weight of the coating was 0.00013 gram, with an estimated cephalotaxin concentration of 33 μg. The stents were sterilized by electron beam radiation. […]

Row | decrease of the release rate by thermal treatment as compared to a control group [1] | release rate from a standard polymeric coating [2] | Compound | amount of neointimal proliferation resulting from arterial injury (coronary arteries)
1 | about 50% | greater than 50% | CO[C@H]1C[C@@H]2CC[C@@H](C)[C@@](O)(O2)C(=O)C(=O)N2CCCC[C@H]2C(=O)O[C@H]([C@H](C)C[C@@H]2CC[C@@H](OCCO)[C@H](OC)C2)CC(=O)[C@H](C)/C=C(\C)[C@@H](O)[C@@H](OC)C(=O)[C@H](C)C[C@H](C)/C=C/C=C/C=C/1C [40-O-(2-hydroxy)ethyl-rapamycin] | –
2 | – | – | COC1=C[C@]23CCCN2CCc2cc4c(cc2[C@@H]3[C@@H]1O)OCO4 [cephalotaxin, Cephalotaxin] | no significant difference
